Test results published in patent publication US8563714B2, “Bridged spiro [2.4] heptane derivatives as ALX receptor and/or FPRL2 agonists” (Actelion Pharmaceuticals Ltd., priority 2009, dated 2013).

Tests used:
[1] = biological target: T1, human ALX receptor (Homo sapiens, UniProt P25090); assay: Intracellular calcium measurements (FLIPR), agonistic activity in HEK293-hALXR-Gα16 cells; assay type: cell-based; details: Fluo-4 calcium FLIPR, normalized to WKYMVm 10 nM
T1 construct: expressed in transfected cells; host or cells: HEK293 (HEK293-hALXR-Gα16)
T1 sequence (P25090 1-351): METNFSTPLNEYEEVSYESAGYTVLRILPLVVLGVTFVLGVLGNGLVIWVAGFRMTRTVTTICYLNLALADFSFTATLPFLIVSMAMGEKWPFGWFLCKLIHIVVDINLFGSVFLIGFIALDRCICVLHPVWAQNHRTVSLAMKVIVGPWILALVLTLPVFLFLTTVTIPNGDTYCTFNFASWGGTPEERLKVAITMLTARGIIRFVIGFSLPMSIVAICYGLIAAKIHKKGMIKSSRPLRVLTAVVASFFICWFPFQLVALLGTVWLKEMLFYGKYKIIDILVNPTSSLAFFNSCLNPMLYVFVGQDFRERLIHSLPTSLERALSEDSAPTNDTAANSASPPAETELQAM
In short: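 HEK293 cells expressing hALXR and Gα16 were loaded with 1 μM Fluo-4 AM and 20 mM HEPES for 60 min at 37°C, then exposed to serially diluted compound. FLIPR fluorescence was read at ex 488/em 540 nm. Baseline-subtracted peak responses were normalized to 10 nM WKYMVm.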

[2] = biological target: T2, human FPRL2 (Homo sapiens, UniProt P25089); assay: Intracellular calcium measurements (FLIPR), agonistic activity in HEK293-hFPRL2-Gα16 cells; assay type: cell-based; details: Fluo-4 calcium FLIPR, normalized to GLY14-Humanin 100 nM
T2 construct: expressed in transfected cells; host or cells: HEK293 (HEK293-hFPRL2-Gα16)
T2 sequence (P25089 1-353): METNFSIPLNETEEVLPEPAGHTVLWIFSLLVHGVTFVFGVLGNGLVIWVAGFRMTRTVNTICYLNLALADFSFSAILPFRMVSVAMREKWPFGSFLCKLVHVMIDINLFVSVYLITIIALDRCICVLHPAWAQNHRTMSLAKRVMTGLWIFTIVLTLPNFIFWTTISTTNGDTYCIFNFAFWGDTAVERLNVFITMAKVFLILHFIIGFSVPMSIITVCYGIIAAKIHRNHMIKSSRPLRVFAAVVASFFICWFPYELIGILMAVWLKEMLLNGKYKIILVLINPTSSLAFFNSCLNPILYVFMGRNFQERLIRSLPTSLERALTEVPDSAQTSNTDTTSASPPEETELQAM
In short: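 Peak values after baseline subtraction are expressed relative to 100 nM Gly14-Humanin; compounds diluted in assay buffer from 10 mM DMSO stocks.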

EC50 [1] [nM]	EC50 [2] [nM]	Structure (SMILES)
8.3	479	O=C(NCC1CCCN1)[C@H]1[C@H](C(=O)Nc2ncc(Br)s2)[C@@H]2CC[C@H]1C21CC1 (stereo partly drawn) [Example 416, (5R)—N^5-(5-Bromothiazol-2-yl)-(6R)—N^6-[(pyrrolidin-2-yl)-methyl]-(4S,7R)-[4,7-ethylene-spiro[2.4]heptane]-5,6-dicarboxamide]
2.1	262	O=C(NCC1CCCCN1)[C@H]1[C@H](C(=O)Nc2ncc(Br)s2)[C@@H]2CC[C@H]1C21CC1 (stereo partly drawn) [Example 417, (5R)—N^5-(5-Bromothiazol-2-yl)-(6R)—N^6-[(piperidin-2-yl)-methyl]-(4S,7R)-[4,7-ethylene-spiro[2.4]heptane]-5,6-dicarboxamide]
0.45	339	O=C(NCC1CCCNC1)[C@H]1[C@H](C(=O)Nc2ncc(Br)s2)[C@@H]2CC[C@H]1C21CC1 (stereo partly drawn) [Example 418, (5R)—N^5-(5-Bromothiazol-2-yl)-(6R)—N^6-[(piperidin-3-yl)-methyl]-(4S,7R)-[4,7-ethylene-spiro[2.4]heptane]-5,6-dicarboxamide]
57	2290	O=C(NC1CNC1)[C@H]1[C@H](C(=O)Nc2ncc(Br)s2)[C@@H]2CC[C@H]1C21CC1 [Example 419, (5R)—N^5-(5-Bromothiazol-2-yl)-(6R)—N^6-(azetidin-3-yl)-(4S,7R)-[4,7-ethylene-spiro[2.4]heptane]-5,6-dicarboxamide]
